According to ChEMBL document CHEMBL3244419:
Calls of active or inactive are those of the source. No cut-off for these calls is given here.

Experiments:
Cavia porcellus [1] = species: Cavia porcellus; test: Agonist activity at opioid receptor in electrically stimulated guinea pig ileum at <50 uM; format: tissue-based
Cavia porcellus [2] = species: Cavia porcellus; test: Agonist activity at opioid receptor in electrically stimulated guinea pig ileum at >=50 uM; format: tissue-based
NG108-15 [3] = test: Agonist activity at opioid receptor in mouse/rat NG108-15 cells assessed by adenylate cyclase assay; format: cell-based
NG108-15 [4] = conditions: 0.5 uM
Description: Antagonist activity at opioid receptor in mouse/rat NG108-15 cells assessed as reversal of morphine-induced inhibition of adenylate cyclase activity at 0.5 uM

Cavia porcellus [5] = species: Cavia porcellus; conditions: Ileum, 10 nM

SMILES | Activity (Cavia porcellus [1]) | Activity (Cavia porcellus [2]) | Activity (NG108-15 [3]) | inhibition (NG108-15 [4]) | inhibition (Cavia porcellus [5])
C=CCN1CC[C@@]23c4c5ccc(O)c4O[C@@H]2C(=O)CC[C@]3(O)[C@@H]1C5 | inactive | inactive | inactive |  | 
C=CCN1CC[C@]23c4c5ccc(O)c4O[C@H]2C(=O)CC[C@@]3(O)[C@H]1C5 |  |  |  | Active | Active
